Peptide text beside a SMILES is read from it.

Experiment [1] has as its system TK054 ΔpcnB. Nature of the experiment: Leucine auxotrophy complementation with peptide vector. The class given is cell-based, E. coli. The conditions noted are these: 1 mM peptide, 6×His_PnGGT ΔN24 expressed, IPTG present. Here is the method: (§1) LB Miller broth (Becton Dickinson, Sparks, Md., USA) was used as standard growth medium for bacterial cultures (Sambrook, 2001). For the preparation of competent cells, SOB medium was used (Hanahan, 1983). Unless stated otherwise, growth experiments in selective medium were carried out in M9 minimal medium (Sambrook, 2001) supplemented with 0.5% glucose, 1 μg mL^−1 thiamine, 0.5 mM IPTG and 1 mM alanyl-γ-glutamyl-leucine (>95% purity, custom synthesized by Pepscan, Lelystad, Netherlands). For growth experiments on solid medium Bacto Agar (Becton Dickinson) was added to a final concentration of 1.5%. Growth experiments in liquid medium were performed either in a Tecan Infinite 200 Pro plate reader (Tecan, Mannedorf, Switzerland) or in a Biolector Basic Microbiorector System (m2p-labs, Baesweiler, Germany). All growth experiments were performed at 37° C. […]
To verify that the beneficial effects to growth with Ala-γ-Glu-Leu were caused by activity reducing mutations in pcnB, the entire gene was removed from the unmutated leucine auxotrophic selection strain, resulting in strain TK054 ΔpcnB. On M9 minimal medium containing 0.5% glucose and 1 mM Ala-γ-Glu-Leu as the only source of leucine, no growth of this strain was detected if the inducer IPTG was omitted (FIG. 6a). […]

Experiment [2] has as its system TK054. Described as above. The class given is cell-based, E. coli. The conditions noted are these: 1 mM peptide, plasmid pACT3/6×His_PnGGT ΔN24, 0.5 mM IPTG, 37° C., 5 days or more. Here is the method:
as §1
The possibility to express 6×His_PnGGT ΔN24 in the cytoplasm of E. coli and the enzyme's relaxed substrate specificity (Imaoka et al., 2010) opened up the possibility to selectively hydrolyze γ-glutamyl compounds within the cytoplasm. […] As a cargo, leucine was chosen, whose successful release could be easily detected by restoring growth to a leucine auxotrophic strain. […]

Experiment [3] deals with T1, EcGGT ΔN24 (Escherichia coli, UniProt P18956).
T1 construct: made in house; host or cells: E. coli (pACT3 plasmid, IPTG induction)
Nature of the experiment: Colorimetric GGT assay in whole cell lysates. The class given is biochemical, E. coli. The conditions noted are these: whole cell lysate, 4 mM substrate, 50 mM Tris-HCl (pH 9.0), 410 nm. From the text: (§2) To test for the desired activity a colorimetric enzyme assay was chosen and the substrate sulfobutanoyl-p-nitroanilide was synthesized for this purpose. Hydrolysis of this colorless substrate by a GGT variant into sulfobutanoic acid and the yellow dye 4-nitroaniline can be quantified photometrically at 410 nm. For that, cytoplasmic GGT variants containing an N-terminal 6×His-tag were first expressed from E. coli (EcGGT ΔN24) and Pseudomonas nitroreducens (PnGGT ΔN24), as well as EcGGT ΔN24 D433N and the corresponding mutant variant PnGGT ΔN24 D405N. Position D405 of PnGGT was identified to fulfill the same function as position D433 of EcGGT by sequence alignment and homology modeling between EcGGT and PnGGT. Then the ability of whole cell lysates containing the respective enzymes was tested to hydrolyze L-glutamic acid γ-(3-carboxy-4-nitroanilide) or sulfobutanoyl-p-nitroanilide.

The target in experiment [4] is T2, EcGGT ΔN24 D433N (Escherichia coli, UniProt P18956, D433N).
T2 construct: made in house; host or cells: E. coli (pACT3 plasmid); assayed in whole cell lysate
The experiment is described as follows: Colorimetric GGT assay in whole cell lysates. It counts as biochemical, E. coli. The conditions noted are these: whole cell lysate, 4 mM substrate, 50 mM Tris-HCl (pH 9.0), 410 nm.
Description: as §2

For experiment [5], the target named is T3, PnGGT ΔN24 D405N (Pseudomonas nitroreducens, UniProt E0D5C2, D405N).
T3 sequence (E0D5C2 with tags, fused parts or gaps D405N): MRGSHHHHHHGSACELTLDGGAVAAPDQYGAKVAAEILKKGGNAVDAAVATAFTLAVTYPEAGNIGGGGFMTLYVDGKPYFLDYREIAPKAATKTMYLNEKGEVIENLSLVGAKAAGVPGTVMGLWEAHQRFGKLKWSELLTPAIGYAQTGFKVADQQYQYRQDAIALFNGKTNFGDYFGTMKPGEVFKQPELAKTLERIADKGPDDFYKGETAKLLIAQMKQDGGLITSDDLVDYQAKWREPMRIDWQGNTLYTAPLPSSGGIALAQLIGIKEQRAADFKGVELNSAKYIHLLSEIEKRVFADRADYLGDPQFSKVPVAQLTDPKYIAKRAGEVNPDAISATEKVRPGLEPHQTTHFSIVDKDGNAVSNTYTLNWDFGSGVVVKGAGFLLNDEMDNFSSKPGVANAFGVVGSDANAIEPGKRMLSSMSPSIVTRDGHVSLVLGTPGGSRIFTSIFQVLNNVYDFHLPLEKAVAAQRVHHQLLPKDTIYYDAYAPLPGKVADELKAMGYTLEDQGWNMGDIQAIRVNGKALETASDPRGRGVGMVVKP
Nature of the experiment: Kinetic measurements with purified PnGGT ΔN24 D405N. The conditions noted are these: purified enzyme, 50 mM Tris-HCl (pH 9.0). The class given is biochemical. Here is the method:
(§3) For the experiments relating to the sulfonate based synthetic transport system, purification of PnGGT ΔN24 and PnGGT ΔN24 D405N containing an N-terminal 6×His-tag was performed according to previous reports (Van Dyke et al., 1992) using Ni-NTA Superflow (Qiagen, Hilden, Germany). For kinetic studies, PnGGT variants were purified with the aid of the 6×His-tag located at the N-terminal end of the large subunit following the same procedure. To exchange the buffer, purified proteins were dialyzed against 50 mM Tris/HCl (pH 7.0).
(§4) To determine the kinetic parameters of PnGGT ΔN24 and PnGGT ΔN24 D405N the purified enzymes were preincubated in 50 mM Tris-HCl (pH 9.0). To start the reaction, varying concentrations of the substrates L-glutamic acid γ-(3-carboxy-4-nitroanilide) or sulfobutanoyl-p-nitroanilide were added to the mixtures. The results were evaluated using GraphPad Prism (GraphPad Software, La Jolla, Calif., USA).

The target of experiment [6] is T4, PnGGT ΔN24 (Pseudomonas nitroreducens, UniProt E0D5C2). Nature of the experiment: Kinetic measurements with purified PnGGT ΔN24. The class given is biochemical. The conditions noted are these: purified enzyme, 50 mM Tris-HCl (pH 9.0). On the procedure:
as §3, §4

Experiment [7] has as its target T4, PnGGT ΔN24. Nature of the experiment: Colorimetric GGT assay in whole cell lysates. The conditions noted are these: whole cell lysate, 4 mM substrate, 50 mM Tris-HCl (pH 9.0), 410 nm. The class given is biochemical.
Description: as §2

Experiment [8] addresses T3, PnGGT ΔN24 D405N. Nature of the experiment: Colorimetric GGT assay in whole cell lysates / cell free extracts. It counts as biochemical. The conditions noted are these: cell free extracts of strain TK018, 2 mM substrate (FIG. 22a). The source says: FIG. 22: Identification of GGT* activity and refactoring of the ssuABC operon. […] The release of 4-nitroaniline was quantified by measuring the absorption at 410 nm. (b) Plasmid map of the three-dimensional RBS-library for refactoring the ssuABC operon using 144 RBS variants per gene. RBS library sequences are underlined. Arrows point towards the final RBS sequences observed in plasmid pSsuABC. […] (e) Growth of strain TK088[pSsuABC]transformed with the empty vector pACT3 (black circles) or plasmid pPnGGT* (white circles) in liquid MS minimal medium supplemented with 0.5% glucose, 1 mM MgSO4, 0.4 mM L-leucine, 0.5 mM IPTG, 100 ng ml^−1 aTc and 0.5 mM sulfobutanoyl-L-histidine. Bars and dots from panels (a), (d) and (e) represent the average of three independent measurements with standard deviations shown as error bars.
To test for the desired activity a colorimetric enzyme assay was chosen and the substrate sulfobutanoyl-p-nitroanilide was synthesized for this purpose. Hydrolysis of this colorless substrate by a GGT variant into sulfobutanoic acid and the yellow dye 4-nitroaniline can be quantified photometrically at 410 nm. For that, cytoplasmic GGT variants containing an N-terminal 6×His-tag were first expressed from E. coli (EcGGT ΔN24) and Pseudomonas nitroreducens (PnGGT ΔN24), as well as EcGGT ΔN24 D433N and the corresponding mutant variant PnGGT ΔN24 D405N. […]

In the case of `CC(C)C[C@H](NC(=O)CC[C@H](NC(=O)[C@H](C)N)C(=O)O)C(=O)O` [Ala-γ-Glu-Leu, alanyl-γ-glutamyl-leucine] (HELM PEPTIDE1{A.[gGlu].L}$$$$V2.0), the “growth with peptide as sole source of leucine” value in experiment [1] is listed as “grew rapidly”; in experiment [2], “poor growth”.
For the molecule `N[C@@H](CCC(=O)Nc1ccc([N+](=O)[O-])c(C(=O)O)c1)C(=O)O` [γ-Glu-p-nitroanilide, L-glutamic acid γ-(3-carboxy-4-nitroanilide), reference compound], the hydrolysis of substrate result was “able to hydrolyze” in experiment [3], “still had detectable activity” in experiment [4] and “able to hydrolyze” in experiment [7]. Moreover, the Km in experiment [5] worked out at 6.5 mM; in experiment [6] it was 0.105 mM. For the same molecule, the maximal velocity (Vmax) in experiment [5] came to 1.79 ± 0.61 µmol/min/mg; in experiment [6] it was 34.94 ± 0.47 µmol/min/mg. Moreover, the kcat in experiment [5] worked out at 1.8 s⁻¹; in experiment [6] it was 34.5 s⁻¹. Further, the “reactivity of PnGGT* to substrate” value in experiment [8] is on record as “no longer possesses significant reactivity”.

The term Km denotes the substrate concentration at which the rate is half of its maximum. As a reminder, the Vmax is the rate approached at saturating substrate. By kcat is commonly meant the maximal rate divided by the concentration of active sites.

The values are drawn from patent US11661398B2, “Cellular transport system for transferring a sulfonic acid construct carrying a cargo into the cytoplasm of a cell” (Scientist of Fortune, S.A., priority 2017, dated 2023).
